Laboratory results taken from patent US8592421B2, “Cyclic bioisosters of purine system derivatives and a pharmaceutical composition based thereon” (priority 2003, dated 2013).

Columns and labels:
plasma hemostasis = assay: Prothrombin time after intravenous administration; type: in vivo, rabbit
Method: The static parameters of the blood and plasma coagulation (partial activated thromboplastin time, thrombin time, maximum coagulation activity (test for auto coagulation) were determined using the Behnk Electronic coagulometer (Germany). The operating principle of this instrument is based on the fact that the formed blood clot breaks the contacts of the pulse counter in the flask-pin circuit, said pin permanently oscillating in a vertical plane. The moment of formation of the clot is registered by stopping the stop watch hand.
The measurements were effected at a constant temperature of 37° C. maintained by a temperature control unit.
The method of its determination is based on estimation of the coagulation of citrate or oxalic blood plasma, when it is mixed with thromboplastin and a calcium chloride solution. Since under these conditions the time of formation of the clot depends on the content of II, VII, IX and X factors in the investigated plasma sample, now the test is called “thromboplastin time by Quick” or “activity thromboplastin complex”.
Citrate blood containing 1 part of citrate per 9 parts of native blood was centrifuged at 3000 rev/min for 10 minutes to obtain plasma deprived of thrombocytes.
Added into a test tube in a water bath were 0.1 ml of plasma and 0.1 ml of a thromboplastin solution.

[1] = Morphine abstinence model: indicator enzymes ALT, AST, γ-GTP in blood plasma; conditions: 20.0 mg/kg intramuscularly three times a day; for γ-GTP in blood plasma, Ci: control 6.261 ± 1.80; for ALT in blood plasma, Ci: control 106.76 ± 111.35; for AST in blood plasma, Ci: control 179.881 ± 11.94
Method: The experiments were carried out on rats in series of 7 animals on each compound according to the invention. Non-morphinized animal with not administered with compounds according to the invention were used as a control group. […] Then the rats were decapitated, the blood from somnolent arteries was collected in test tubes with solution EDTA as an anticoagulant, centrifuged at 1500 g for 15 minutes at 4° C.
To estimate possible hepatoprotective action of the compounds according to the invention under conditions of development of an oxidizing stress in the liver cells, effect of these compounds on the most important biochemical blood indexes, in particular, on the content in blood plasma of indicator enzyme of aspartateaminotransferase (AST), alanineaminotransferase (ALT), γ-glutamiletranspeptidase (γ-GTP) was investigated. The content of enzymes was estimated by their catalyzing activity in blood plasma.
The activity of AST, ALT and γ-GTP was determined by means of diagnostic sets DiaSys, Germany.

[2] = Chronic toxicity of suppositories: indexes of peripheral blood; type: in vivo, rats; parameters: Thrombocytes: unit not given here; conditions: male rats, suppositories rectally; for Basophiles / Juveniles: 1 month/2 months (one value given), control 0
[3] = Chronic toxicity of suppositories: indexes of urine; type: in vivo, rats; conditions: rats, suppositories rectal, 1 month after administration
Method: The experiments were conducted on inbred rats.

## O=c1[nH][nH]c(=O)c2c(Br)ncnc12.[K] [Compound 37, potassium salt of 4-bromine-pyrimido[4,5-D]-6H-pyridazine-5,8-dione]
Plasma hemostasis; 15.0 mg/kg intravenously, after 15 minutes, control 11.8 ± 0.1
  prothrombin time, T: 11.6 ± 0.2 s
Plasma hemostasis; 15.0 mg/kg intravenously, after 30 minutes, control 11.8 ± 0.1
  prothrombin time, T: 11.6 ± 0.1 s
Plasma hemostasis; 15.0 mg/kg intravenously, after 60 minutes, control 11.8 ± 0.1
  prothrombin time, T: 11.5 ± 0.2 s
Plasma hemostasis; 15.0 mg/kg intravenously, after 120 minutes, control 11.8 ± 0.1
  prothrombin time, T: 11.8 ± 0.1 s
Plasma hemostasis; 30.0 mg/kg intravenously, after 15 minutes, control 11.2 ± 0.1
  prothrombin time, T: 11.3 ± 0.1 s
Plasma hemostasis; 30.0 mg/kg intravenously, after 30 minutes, control 11.2 ± 0.1
  prothrombin time, T: 11.2 ± 0.2 s
Plasma hemostasis; 30.0 mg/kg intravenously, after 60 minutes, control 11.2 ± 0.1
  prothrombin time, T: 11.4 ± 0.1 s
Plasma hemostasis; 30.0 mg/kg intravenously, after 120 minutes, control 11.2 ± 0.1
  prothrombin time, T: 11.1 ± 0.1 s
Plasma hemostasis; 60.0 mg/kg intravenously, after 15 minutes, control 12.0 ± 0.1
  prothrombin time, T: 12.1 ± 0.1 s
Plasma hemostasis; 60.0 mg/kg intravenously, after 30 minutes, control 12.0 ± 0.1
  prothrombin time, T: 12.0 ± 0.1 s
Plasma hemostasis; 60.0 mg/kg intravenously, after 60 minutes, control 12.0 ± 0.1
  prothrombin time, T: 12.1 ± 0.2 s
Plasma hemostasis; 60.0 mg/kg intravenously, after 120 minutes, control 12.0 ± 0.1
  prothrombin time, T: 12.0 ± 0.1 s
Plasma hemostasis; doses of 15.0, 30.0, 60.0 mg/kg
  effect on the prothrombin time index: have no effect on the prothrombin time index
[1]; Control + compound
  γ-GTP in blood plasma, Ci: 8.14 ± 2.64 mE/l
  ALT in blood plasma, Ci: 113.84 ± 2.0 mE/l
  AST in blood plasma, Ci: 174.82 ± 4.91 mE/l
[1]; control + Morphine + Compound
  γ-GTP in blood plasma, Ci: 10.32 ± 2.67 mE/l
  ALT in blood plasma, Ci: 120.84 ± 5.20 mE/l
  AST in blood plasma, Ci: 193.58 ± 14.18 mE/l
[2]; 50 mg/kg
  Basophiles: 0%
  Juveniles: 0%
[2]; 50 mg/kg, 1 month, control 0.8 ± 0.4
  Stab neutrophil: 1.3 ± 0.5%
[2]; 50 mg/kg, 1 month, control 2.2 ± 0.4
  REE: 1.8 ± 0.3 mm/h
[2]; 50 mg/kg, 1 month, control 2.8%0.3
  Reticulocytes: 2.6 ± 0.1%
[2]; 50 mg/kg, 1 month, control 4.0 + 0.3
  Eosinophiles: 3.8 ± 0.8%
[2]; 50 mg/kg, 1 month, control 5.6 ± 0.1
  Erythrocytes: 5.6 ± 0.2 mln/mm^3
[2]; 50 mg/kg, 1 month, control 10.5 ± 0.2
  Hemoglobin: 10.5 ± 0.1 mmol/L
[2]; 50 mg/kg, 1 month, control 17.4 ± 1.3
  Leukocyte: 14.9 ± 1.5 thousand/mm^3
[2]; 50 mg/kg, 1 month, control 45.9 ± 1.7
  Haematocrite: 47.8 ± 1.4%
[2]; 50 mg/kg, 1 month, control 81.4 ± 1.7
  Average volume of erythrocytes: 83.9 ± 1.7 Mkm^3
[2]; 50 mg/kg, 1 month, control 152 ± 10.2
  Coagulation, time: 151 ± 13 s
[2]; 50 mg/kg, 1 month, control 707 ± 23
  Thrombocytes: 675 ± 22
[2]; 50 mg/kg, 2 months, control 1.4 ± 0.2
  REE: 1.6 ± 0.3 mm/h
[2]; 50 mg/kg, 2 months, control 2.4 ± 0.4
  Stab neutrophil: 1.9 ± 0.4%
[2]; 50 mg/kg, 2 months, control 2.9 ± 0.2
  Reticulocytes: 3.1 ± 0.1%
[2]; 50 mg/kg, 2 months, control 4.4 + 1.2
  Eosinophiles: 4.2 ± 0.3%
[2]; 50 mg/kg, 2 months, control 6.1 ± 0.1
  Erythrocytes: 6.2 ± 0.1 mln/mm^3
[2]; 50 mg/kg, 2 months, control 11.4 ± 0.2
  Hemoglobin: 11.0 ± 0.1 mmol/L
[2]; 50 mg/kg, 2 months, control 19.1 ± 1.9
  Leukocyte: 16.7 ± 1.2 thousand/mm^3
[2]; 50 mg/kg, 2 months, control 45.9 ± 1.8
  Haematocrite: 47.5 ± 1.2%
[2]; 50 mg/kg, 2 months, control 74.6 + 1.9
  Average volume of erythrocytes: 78.5 ± 1.4 Mkm^3
[2]; 50 mg/kg, 2 months, control 316 ± 8
  Coagulation, time: 319 ± 12 s
[2]; 50 mg/kg, 2 months, control 593 ± 14
  Thrombocytes: 609 ± 18
[2]; 500 mg/kg
  Basophiles: 0%
  Juveniles: 0%
[2]; 500 mg/kg, 1 month, control 0.8 ± 0.4
  Stab neutrophil: 0.9 ± 0.4%
[2]; 500 mg/kg, 1 month, control 2.2 ± 0.4
  REE: 2.2 ± 0.3 mm/h
[2]; 500 mg/kg, 1 month, control 2.8%0.3
  Reticulocytes: 3.0 ± 0.2%
[2]; 500 mg/kg, 1 month, control 4.0 + 0.3
  Eosinophiles: 3.5 ± 1.0%
[2]; 500 mg/kg, 1 month, control 5.6 ± 0.1
  Erythrocytes: 5.7 ± 0.1 mln/mm^3
[2]; 500 mg/kg, 1 month, control 10.5 ± 0.2
  Hemoglobin: 10.6 ± 0.1 mmol/L
[2]; 500 mg/kg, 1 month, control 17.4 ± 1.3
  Leukocyte: 17.1 ± 0.9 thousand/mm^3
[2]; 500 mg/kg, 1 month, control 45.9 ± 1.7
  Haematocrite: 47.9 ± 1.8%
[2]; 500 mg/kg, 1 month, control 81.4 ± 1.7
  Average volume of erythrocytes: 82.3 ± 1.5 Mkm^3
[2]; 500 mg/kg, 1 month, control 152 ± 10.2
  Coagulation, time: 157 ± 14 s
[2]; 500 mg/kg, 2 months, control 1.4 ± 0.2
  REE: 2.0 ± 0.1 mm/h
[2]; 500 mg/kg, 2 months, control 2.4 ± 0.4
  Stab neutrophil: 1.1 ± 0.6%
[2]; 500 mg/kg, 2 months, control 2.9 ± 0.2
  Reticulocytes: 3.4 ± 0.2%
[2]; 500 mg/kg, 2 months, control 4.4 + 1.2
  Eosinophiles: 4.1 ± 1.3%
[2]; 500 mg/kg, 2 months, control 6.1 ± 0.1
  Erythrocytes: 6.5 ± 0.2 mln/mm^3
[2]; 500 mg/kg, 2 months, control 11.4 ± 0.2
  Hemoglobin: 12.1 ± 0.4 mmol/L
[2]; 500 mg/kg, 2 months, control 19.1 ± 1.9
  Leukocyte: 18.7 ± 1.7 thousand/mm^3
[2]; 500 mg/kg, 2 months, control 45.9 ± 1.8
  Haematocrite: 52.5 ± 1.7%
[2]; 500 mg/kg, 2 months, control 74.6 + 1.9
  Average volume of erythrocytes: 80.1 ± 1.0 Mkm^3
[2]; 500 mg/kg, 2 months, control 593 ± 14
  Thrombocytes: 639 ± 34
[3]; dose 50 mg/kg
  Bilirubin (urine): <5 Mkmol/l
  Glucose (urine): <5 mmol/L
  Ketone bodies (urine): <1 mmol/L
  Potassium (urine): 6.12 ± 1.4 g/L
  Protein (urine): 0.70 ± 0.19 g/L
  Sodium (urine): 1.4 ± 0.2 g/L
  Urea (urine): 427 ± 137 mmol/L
  Urobilinogen (urine): <15 Mkmol/l
  pH (urine): 6.4 ± 0.4
[3]; dose 500 mg/kg
  Bilirubin (urine): <5 Mkmol/l
  Glucose (urine): <5 mmol/L
  Ketone bodies (urine): <1 mmol/L
  Potassium (urine): 6.44 ± 1.3 g/L
  Protein (urine): 0.72 ± 0.14 g/L
  Sodium (urine): 0.88 ± 0.4 g/L
  Urea (urine): 489 ± 152 mmol/L
  Urobilinogen (urine): <15 Mkmol/l
  pH (urine): 6.2 ± 0.3
